Structures are written as SMILES. Where two headings read alike, the source gives them in different places.

Data set [1] is classed as in vitro ADME, rat (Wistar strain, male). Particulars: rat skin; for promotion of AZT permeation through the skin (in words): in vitro, oleic acid vs water, Azone and S-318 vs 10% oleic acid; for F, AZT permeation rate: n = 3. As for the experimental part:
A. The abdominal skin of a rat (Wistar strain, male, 200 g) was removed after shaving and placed between the chambers of a diffusion cell comprising two chambers having an effective permeation area of 0.95 cm^2 and a capacity of 2.3 ml for each chamber. The chamber of the corneum side received an AZT solution to be tested and the other chamber received water. The cell was warmed to 37° C. while the permeation of the drug towards the opposite chamber was measured. The AZT solution contained […] (5 mg/ml) AZT either in water or an aqueous solution of 10% oleic acid. […] The results are plotted In FIG. 1. The permeation rate during the stable permeation state (Fss) was determined as follows from the slope of the plots between 10 and 24 hours:
B. In a manner similar to that described in A, further agents capable of promoting permeation of AZT were searched. The promotion rate by each of the tested agents was expressed in relative terms when the rate of 10% oleic acid is tentatively determined as 1.
C. In the similar manner as in A and B, the permeation of AZT as a function of its concentration (3.7 mM-112 mM) was studied. 112 mM (about 3%) is a preferred concentration of AZT for practical purposes in producing a percutaneous AZT composition. The combination of a) 3% Azone+20% MP or b) 5% S-318+10% OA+20% PG+10% MP was used as a permeation promoting agent.

The conditions of data set [2]: cited from earlier work.
Data set [3] deals with reverse transcriptases. Particulars: background statement; cited from earlier work.
Data set [4] can be described thus: In vivo study - plasma AZT level by percutaneous (oleic acid pretreated skin) and oral administration of AZT. On the set-up: species or system rat (Wistar strain, male). Particulars: for concentration at 0.5 h / concentration at 1 h / concentration at 2 h / concentration at 4 h / concentration at 6 h / concentration at 8 h / concentration at 24 h: plasma. As for the experimental part: Three male rates of Wistar strain weighing about 200 g was allotted to each group. The abdominal portion of the rat was shaven and pretreated with 10% oleic acid for 24 hours. Then a 1 ml aliquot of a solution containing 0.5% (18.7 mM) AZT and 10% oleic acid in water was applied over 4.9 cm^2 area of the skin by a glass cell secured on the body of the rat. AZT level in the plasma sampled at […], 2, 4, 6, 8 and 24 hours after the administration was determined by HPLC. A control group orally received 0.5 ml water containing 0.6 mg AZT.

The nature of data set [5]: In vivo study - percutaneous absorption of AZT without pretreatment with 10% oleic acid. On the set-up: species or system rat (Wistar strain, male). Particulars: no pretreatment, rat. As for the experimental part: In a manner similar to that described in Example 2, the possibility of percutaneous absorption of AZT without pretreatment with 10% oleic acid was studied.
As absorption promoting agents, a) an aqueous solution containing 3% Azone and 20% MP, and b) an aqueous solution containing 5% S-318, 10% OA, 20% PG and 10% MP were prepared. AZT was dissolved at 3.7 mM concentration in each of said absorption agents and 1 ml of the resulting solution was applied to the skin of rats in a similar manner as in Example 2.

Where [6] appears, read: according to Klecker et al. 1987.
Setting [7] is: topical or ocular, percutaneous, 1 ml 0.5% AZT + 10% oleic acid, 4.9 cm^2, rat.
Setting [8] is: oral, 0.6 mg AZT in 0.5 ml water, rat.
Where [9] appears, read: 3.7 mM (1 mg/ml) AZT, 3% Azone + 20% MP.
Where [10] appears, read: 3.7 mM (1 mg/ml) AZT, 5% S-318 + 10% OA + 20% PG + 10% MP.
[11] abbreviates: 18.7 mM (5 mg/ml) AZT, 3% Azone + 20% MP.
The mark [12] stands for this setting: 18.7 mM (5 mg/ml) AZT, 5% S-318 + 10% OA + 20% PG + 10% MP.
[13] abbreviates: 56.2 mM (15 mg/ml) AZT, 3% Azone + 20% MP.
Setting [14] is: 56.2 mM (15 mg/ml) AZT, 5% S-318 + 10% OA + 20% PG + 10% MP.
Setting [15] is: 112 mM (30 mg/ml) AZT, 3% Azone + 20% MP.
Setting [16] is: 112 mM (30 mg/ml) AZT, 5% S-318 + 10% OA + 20% PG + 10% MP.

`CCCCCCCCCCCCN1CCCCCC1=O` [Azone, 1-dodecylazacycloheptane-2-one]: the “promotion of AZT permeation through the skin (in words)” value in data set [1] is listed as “greatly accelerated”.
For `Cc1cn([C@H]2C[C@H](N=[N+]=[N-])[C@@H](CO)O2)c(=O)[nH]c1=O` [AZT, 3'-azide-3'-deoxythymidine], in data set [2] (setting [6]), the “clearance (Cltot)” value is 78 L/h and the “plasma AZT level required for AIDS treatment (Css)” value is 1000 nM. Further, the “maintenance of an adequate AZT level in blood” value in data set [2] (conventional oral administration, 5 mg/kg every 4 hours, Klecker et al. 1987) is “impossible to maintain an adequate AZT level in blood”. In data set [3], the “inhibition of reverse transcriptases” value is “effective inhibitor of reverse transcriptases”. Moreover, the “percutaneous absorption of AZT” value in data set [4] (applied to rat skin as a simple water solution (data not shown)) was “not observed at all”. Moreover, in data set [4] (in the presence of oleic acid, rat), the “percutaneous absorption of AZT, detection in plasma” value is on record as “could be detected in the plasma over 24 hours”. Besides, the “drug level in the plasma after oral administration” value in data set [4] (oral, 0.6 mg AZT, rat) is “undetectable at 6 hours after the administration”. Also, in data set [4] (setting [7]), the concentration at 0.5 h was found to be 200 nM, the concentration at 1 h amounted to 600 nM, the concentration at 2 h came out at 700 nM and the concentration at 4 h was found to be 1500 nM. Moreover, in data set [4] (setting [7]), the concentration at 6 h turned out to be 1500 nM, the concentration at 8 h amounted to 1500 nM and the concentration at 24 h is 4000 nM. In addition, in data set [4] (setting [8]), the concentration at 0.5 h was found to be 3100 nM, the concentration at 1 h came to 2500 nM, the concentration at 2 h was 500 nM and the concentration at 4 h amounted to 200 nM. In addition, in data set [4] (setting [8]), the concentration at 6 h was less than 100 nM, the concentration at 8 h is less than 100 nM and the concentration at 24 h is less than 100 nM. For the same molecule, in data set [1] (setting [9]), the relative promotion rate is listed as 6.2 and the “F, AZT permeation rate” value was 0.28 μmol/cm^2 /h. Besides, in data set [1] (setting [10]), the relative promotion rate amounted to 4.4 and the “F, AZT permeation rate” value stood at 0.20 μmol/cm^2 /h. In data set [1] (setting [11]), the relative promotion rate is 16.4 and the “F, AZT permeation rate” value was determined as 0.74 μmol/cm^2 /h. Further, in data set [1] (setting [12]), the relative promotion rate amounted to 14.0 and the “F, AZT permeation rate” value worked out at 0.63 μmol/cm^2 /h. In addition, in data set [1] (setting [13]), the relative promotion rate is 49.3 and the “F, AZT permeation rate” value worked out at 2.22 μmol/cm^2 /h. In data set [1] (setting [14]), the relative promotion rate was found to be 53.6 and the “F, AZT permeation rate” value turned out to be 2.41 μmol/cm^2 /h. Moreover, in data set [1] (setting [15]), the relative promotion rate stood at 71.6 and the “F, AZT permeation rate” value came to 3.22 μmol/cm^2 /h. Moreover, in data set [1] (setting [16]), the relative promotion rate is recorded as 108 and the “F, AZT permeation rate” value is recorded as 4.85 μmol/cm^2 /h. In data set [1] (37° C, 18.7 mM (5 mg/ml) AZT in 10% oleic acid, slope between 10 and 24 hours), the “permeation rate during the stable permeation state (Fss)” value is on record as 0.045 μmol/cm^2 /h. The “AZT level in the plasma” value in data set [5] (3.7 mM AZT with a) 3% Azone + 20% MP or b) 5% S-318 + 10% OA + 20% PG + 10% MP) was “a high AZT level in the plasma was achieved over a period of 10 hours”. Further, the “efficient penetration of AZT through the skin” value in data set [5] (3.7 mM AZT, promoting agent a) 3% Azone + 20% MP) was “especially remarkable”.
Regarding `CCCCCCCC/C=C\CCCCCCCC(=O)O` [oleic acid], the “promotion of AZT permeation through the skin (in words)” value in data set [1] is recorded as “promoted permeation of AZT through the skin”.
